# Experimental data reported in PMC11496704, “Synthesis and cytotoxicity studies of novel N-arylbenzo[h]quinazolin-2-amines” (Beilstein Journal of Organic Chemistry, 2024).
# pIC50: −log10 of the molar value.
# Tests used:
# Assay type in all cases: cell-based
# HCT116 = experiment: Cytotoxicity primary screen (single dose); settings: Homo sapiens, HCT-116; single dose 25 μM, 48 h exposure, mean of triplicates; read-out: percentage of cell survival over DMSO control, HCT116
# Protocol: (§1) Next, we performed a cytotoxicity screening of the nineteen molecules 4a–s, at 25 μM, investigating seven representative cancer cell lines: hepatocellular carcinoma HuH-7, colorectal adenocarcinoma CaCo-2, breast carcinoma MDA-MB-231 and MDA-MB-468, colorectal carcinoma HCT-116, prostate carcinoma PC3 and breast carcinoma MCF7. […] For details see: ref. [2] and Supporting Information File 1, Table S1.
# (§2) Cell culture. Skin normal fibroblastic cells are purchased from Lonza (Basel, Switzerland), HuH-7, Caco-2, MDA-MB-231, HCT-116, PC3, MCF7 and NCI-H727 cancer cell lines were obtained from ATCC (American Type Culture Collection). Cells are grown at 37 °C, 5% CO2 in ATCC recommended media: DMEM for HuH-7, MDA-MB-231, MDA-MB-468 and fibroblast, EMEM for MCF7 and CaCo-2, McCoy’s for HCT-116 and RPMI for PC3 and NCI-H727. All culture media are supplemented by 10% of FBS, 1% of penicillin-streptomycin and 2 mM glutamine.
# (§3) Both studies have been performed following the protocols described in a previous paper, see ref. [2].
# (§4) Table S1: Cytotoxicity studies (single dose at 25µM) of N-arylbenzo[h]quinazolin-2-amines 4a–s
# (§5) The toxicity is expressed as the percentage of cell survival (from 100 % to 0 %) over DMSO control after 48 h exposure (mean of triplicates).
# (§6) Effect of the solvent (DMSO) was studied at 0.25%.
# MCF7 [1] = experiment: Cytotoxicity primary screen (single dose); settings: Homo sapiens, single dose 25 μM, 48 h exposure, mean of triplicates, read-out: percentage of cell survival over DMSO control, MCF7
# Protocol: as §1, §2, §3, §4, §5, §6
# MDA231 = experiment: Cytotoxicity primary screen (single dose); settings: Homo sapiens, MDA-MB-231; single dose 25 μM, 48 h exposure, mean of triplicates; read-out: percentage of cell survival over DMSO control, MDA231
# Protocol: as §1, §2, §3, §4, §5, §6
# PC3 [2] = experiment: Cytotoxicity primary screen (single dose); settings: Homo sapiens, PC-3; single dose 25 μM, 48 h exposure, mean of triplicates; read-out: percentage of cell survival over DMSO control, PC3
# Protocol: as §1, §2, §3, §4, §5, §6
# MDA468 = experiment: Cytotoxicity primary screen (single dose); settings: single dose 25 μM, 48 h exposure, mean of triplicates; read-out: percentage of cell survival over DMSO control, MDA468
# Protocol: as §1, §2, §3, §4, §5, §6
# MDA-MB-231 = experiment: Cytotoxicity secondary screen (IC50); settings: Homo sapiens, 48 h exposure, mean of triplicates, NE: no effect
# MCF7 [3] = experiment: Cytotoxicity secondary screen (IC50); settings: Homo sapiens, 48 h exposure, mean of triplicates, NE: no effect
# HuH7 = experiment: Cytotoxicity primary screen (single dose); settings: Homo sapiens, Huh-7; single dose 25 μM, 48 h exposure, mean of triplicates; read-out: percentage of cell survival over DMSO control, HuH7
# Protocol: as §1, §2, §3, §4, §5, §6
# Caco-2 [4] = experiment: Cytotoxicity primary screen (single dose); settings: single dose 25 μM, 48 h exposure, mean of triplicates
# Protocol: as §1, §2, §3, §4, §5, §6
# MDA-MB-468 = experiment: Cytotoxicity secondary screen (IC50); settings: Homo sapiens, 48 h exposure, mean of triplicates, NE: no effect
# HuH-7 = experiment: Cytotoxicity secondary screen (IC50); settings: Homo sapiens, 48 h exposure, mean of triplicates, NE: no effect
# Protocol: as §2, §3
# normal human fibroblasts = experiment: Cytotoxicity secondary screen (IC50); settings: Fibroblast, 48 h exposure, mean of triplicates, NE: no effect, highest concentration tested 25 μM, read-out: IC50 Fibro
# Protocol: as §2, §3
# PC3 [5] = experiment: Cytotoxicity secondary screen (IC50); settings: Homo sapiens, PC-3; 48 h exposure, mean of triplicates; NE: no effect
# Protocol: as §2, §3
# HCT-116 = experiment: Cytotoxicity secondary screen (IC50); settings: Homo sapiens, 48 h exposure, mean of triplicates, NE: no effect
# Protocol: as §1, §2, §3
# Caco-2 [6] = experiment: Cytotoxicity secondary screen (IC50); settings: Homo sapiens, 48 h exposure, mean of triplicates, NE: no effect
# Protocol: as §1, §2, §3
Structure (SMILES),viability at 25 µM (HCT116),viability at 25 µM (MCF7 [1]),viability at 25 µM (MDA231),viability at 25 µM (PC3 [2]),viability at 25 µM (MDA468),pIC50 (MDA-MB-231),pIC50 (MCF7 [3]),viability at 25 µM (HuH7),"percentage of cell survival over DMSO control, CaCo-2 (Caco-2 [4])",pIC50 (MDA-MB-468),pIC50 (HuH-7),pIC50 (normal human fibroblasts),pIC50 (PC3 [5]),pIC50 (HCT-116),pIC50 (Caco-2 [6])
"Brc1cc(Br)cc(Nc2ncc3ccc4ccccc4c3n2)c1 [Compound 4o, N-(3,5-dibromophenyl)benzo[h]quinazolin-2-amine]",27%,85%,67%,38%,47%,< 4.60,4.68,62%,46%,4.70,4.62,< 4.60,4.68,4.64,4.80
"Clc1cccc(Nc2ncc3ccc4ccccc4c3n2)c1 [Compound 4l, N-(3-chlorophenyl)benzo[h]quinazolin-2-amine]",56%,68%,67%,59%,78%,< 4.60,4.74,71%,38%,4.59,4.66,< 4.60,4.59,4.62,4.77
"Cc1cc(Nc2ncc3ccc4ccccc4c3n2)ccc1Br [Compound 4r, N-(4-bromo-3-methylphenyl)benzo[h]quinazolin-2-amine]",100%,85%,101%,89%,96%,,,80%,76%,,,,,,
"Fc1ccc(Nc2ncc3ccc4ccccc4c3n2)cc1F [Compound 4n, N-(3,4-difluorophenyl)benzo[h]quinazolin-2-amine]",82%,97%,91%,82%,85%,,,79%,72%,,,,,,
"Fc1ccccc1Nc1ncc2ccc3ccccc3c2n1 [Compound 4h, N-(2-fluorophenyl)benzo[h]quinazolin-2-amine]",82%,83%,83%,74%,94%,< 4.60,< 4.60,81%,48%,< 4.60,< 4.60,< 4.60,< 4.60,< 4.60,5.34
"Cc1ccccc1Nc1ncc2ccc3ccccc3c2n1 [Compound 4b, N-(o-tolyl)benzo[h]quinazolin-2-amine]",79%,70%,86%,72%,93%,< 4.60,< 4.60,69%,56%,< 4.60,< 4.60,< 4.60,< 4.60,< 4.60,< 4.60
"Fc1cc(Cl)cc(Nc2ncc3ccc4ccccc4c3n2)c1 [Compound 4p, N-(3-chloro-5-fluorophenyl)benzo[h]quinazolin-2-amine]",17%,91%,68%,59%,72%,,,80%,54%,,,,,,
"Fc1cc(Nc2ncc3ccc4ccccc4c3n2)cc(F)c1F [Compound 4s, N-(3,4,5-trifluorophenyl)benzo[h]quinazolin-2-amine]",63%,54%,78%,50%,78%,,,77%,65%,,,,,,
"COc1ccccc1Nc1ncc2ccc3ccccc3c2n1 [Compound 4e, N-(2-methoxyphenyl)benzo[h]quinazolin-2-amine]",8%,82%,40%,21%,46%,4.60,4.66,55%,59%,4.60,< 4.60,< 4.60,< 4.60,4.59,4.70
"Clc1ccccc1Nc1ncc2ccc3ccccc3c2n1 [Compound 4k, N-(2-chlorophenyl)benzo[h]quinazolin-2-amine]",83%,56%,91%,73%,93%,< 4.60,< 4.60,76%,61%,< 4.60,< 4.60,< 4.60,< 4.60,< 4.60,< 4.60
"Fc1ccc(Nc2ncc3ccc4ccccc4c3n2)cc1 [Compound 4j, N-(4-fluorophenyl)benzo[h]quinazolin-2-amine]",81%,81%,91%,78%,95%,,,92%,77%,,,,,,
"Cc1cccc(Nc2ncc3ccc4ccccc4c3n2)c1 [Compound 4c, N-(m-tolyl)benzo[h]quinazolin-2-amine]",52%,50%,81%,60%,65%,< 4.60,4.52,68%,50%,4.66,< 4.60,< 4.60,< 4.60,4.74,4.55
"COc1cccc(Nc2ncc3ccc4ccccc4c3n2)c1 [Compound 4f, N-(3-methoxyphenyl)benzo[h]quinazolin-2-amine]",29%,78%,77%,54%,73%,< 4.60,< 4.60,59%,59%,4.48,4.64,< 4.60,4.59,5.00,5.37
"COc1ccc(Nc2ncc3ccc4ccccc4c3n2)cc1 [Compound 4g, N-(4-methoxyphenyl)benzo[h]quinazolin-2-amine]",72%,83%,87%,82%,90%,,,79%,81%,,,,,,
"Clc1ccc(Nc2ncc3ccc4ccccc4c3n2)cc1 [Compound 4m, N-(4-chlorophenyl)benzo[h]quinazolin-2-amine]",68%,88%,83%,74%,88%,,,96%,75%,,,,,,
